Experimental data: PubChem BioAssay (NCI)
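1) Cells in 96-well plates. 2) Compound, 48 h, 5 concentrations. 3) Linear interpolation between surrounding doses. 4) Unreached endpoint = highest concentration. TGI: concentration producing complete growth inhibition.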

How the values were obtained:
Assay in all cases: NCI anticancer screen, dose series, 48 h
K-562 leukemia = tested on: K-562 leukemia
OVCAR-3 ovarian = tested on: OVCAR-3 ovarian
SF-295 CNS = tested on: SF-295 CNS
HOP-92 NSCLC = tested on: HOP-92 NSCLC
NCI/ADR-RES ovarian = tested on: NCI/ADR-RES ovarian
RPMI-8226 leukemia = tested on: RPMI-8226 leukemia
SK-OV-3 ovarian = tested on: SK-OV-3 ovarian
CCRF-CEM leukemia = tested on: CCRF-CEM leukemia
SK-MEL-28 melanoma = tested on: SK-MEL-28 melanoma
TK-10 renal = tested on: TK-10 renal
DU-145 prostate = tested on: DU-145 prostate
MDA-MB-231 breast = tested on: MDA-MB-231 breast
U251 CNS = tested on: U251 CNS
SK-MEL-2 melanoma = tested on: SK-MEL-2 melanoma
NCI-H460 lung = tested on: NCI-H460 lung
SF-268 CNS = tested on: SF-268 CNS
SNB-75 CNS = tested on: SNB-75 CNS
MDA-MB-435 = tested on: MDA-MB-435
OVCAR-4 ovarian = tested on: OVCAR-4 ovarian
PC-3 prostate = tested on: PC-3 prostate

| Structure (SMILES) | TGI (K-562 leukemia) | TGI (OVCAR-3 ovarian) | TGI (SF-295 CNS) | TGI (HOP-92 NSCLC) | TGI (NCI/ADR-RES ovarian) | TGI (RPMI-8226 leukemia) | TGI (SK-OV-3 ovarian) | TGI (CCRF-CEM leukemia) | TGI (SK-MEL-28 melanoma) | TGI (TK-10 renal) | TGI (DU-145 prostate) | TGI (MDA-MB-231 breast) | TGI (U251 CNS) | TGI (SK-MEL-2 melanoma) | TGI (NCI-H460 lung) | TGI (SF-268 CNS) | TGI (SNB-75 CNS) | TGI (MDA-MB-435) | TGI (OVCAR-4 ovarian) | TGI (PC-3 prostate) |
| --- | --- | --- | --- | --- | --- | --- | --- | --- | --- | --- | --- | --- | --- | --- | --- | --- | --- | --- | --- | --- |
| O=C1N/C(=N\N=C\c2ccccc2)C2(CCCCC2)O1 | > 100 µM | > 100 µM | > 100 µM | > 100 µM | > 100 µM | > 100 µM | > 100 µM | 61.1 µM | > 100 µM | > 100 µM | > 100 µM | > 100 µM | > 100 µM | > 100 µM | > 100 µM | > 100 µM | 88.5 µM | > 100 µM | > 100 µM | > 100 µM |
| C[C@@H](NC(=O)Cn1c(Cl)nc2ccccc21)c1ccccc1 | > 100 µM | > 100 µM | > 100 µM | > 100 µM | > 100 µM | > 100 µM | > 100 µM | > 100 µM | > 100 µM | > 100 µM | > 100 µM | > 100 µM | > 100 µM | > 100 µM | > 100 µM | > 100 µM | > 100 µM | > 100 µM | > 100 µM | > 100 µM |
| Cc1ccc2c(c1)C=CC1(O2)N(c2ccccc2)C(=S)OC1(C)C (configuration not stated) | > 100 µM | > 100 µM | > 100 µM | > 100 µM | > 100 µM | > 100 µM | > 100 µM | > 100 µM | > 100 µM | > 100 µM | > 100 µM | > 100 µM | > 100 µM | > 100 µM | > 100 µM | > 100 µM | > 100 µM | > 100 µM | > 100 µM | > 100 µM |
| Cc1cccc(Nc2nc3ccccc3nc2NS(=O)(=O)c2ccccc2)c1 | > 100 µM | 80 µM | > 100 µM | 63.7 µM | > 100 µM | > 100 µM | > 100 µM | 86.5 µM | > 100 µM | > 100 µM | > 100 µM | > 100 µM | 59 µM | 68.6 µM | 51.4 µM | > 100 µM | 63.8 µM | > 100 µM | 19.7 µM | 72 µM |
| CCCCCCc1cc2cc(-c3cn4c(n3)sc3ccccc34)c(=O)oc2cc1O | > 100 µM | > 100 µM | > 100 µM | > 100 µM | > 100 µM | > 100 µM | > 100 µM | > 100 µM | > 100 µM | > 100 µM | > 100 µM | > 100 µM | > 100 µM | > 100 µM | > 100 µM | > 100 µM | > 100 µM | > 100 µM | > 100 µM | > 100 µM |
| Cc1cc(N(CCC#N)CCC#N)ccc1/C=C(\NC(=O)/C=C/c1ccccc1)C(=O)Nc1ccc(Cl)cc1 | > 100 µM | > 100 µM | > 100 µM | > 100 µM | > 100 µM | > 100 µM | > 100 µM | > 100 µM | > 100 µM | > 100 µM | > 100 µM | > 100 µM | > 43.9 µM | > 100 µM | > 100 µM | > 100 µM | > 100 µM | > 100 µM | > 100 µM | > 100 µM |
| Nc1nc(Cl)c(N)c(NCC2(CO)CCC(CCc3ccccc3)C2)n1 (configuration not stated) | 48 µM | 50.3 µM | 29.8 µM | 49.2 µM | > 63.1 µM | 47.7 µM | 63.8 µM | 48.8 µM | 31.1 µM | > 70.7 µM | 55.1 µM | 34.4 µM | 29 µM | 31.7 µM | 32.2 µM | 40.2 µM | 63.9 µM | 27 µM | 77.5 µM | 49.7 µM |
| CC(=O)c1c2c(cc3c1CC1(Cc4cc5c(cc4C1)C(=O)CCC5)C3)CCCC2 (configuration not stated) | 4.79 µM | 54.3 µM | > 45.5 µM | 40.1 µM | > 100 µM | 13.2 µM | > 100 µM | 5.01 µM | 69.8 µM | > 100 µM | > 100 µM | 55.1 µM | > 100 µM | 7.76 µM | 67.2 µM | 65 µM | > 26.1 µM | 11.4 µM | > 100 µM | > 83.5 µM |
| CCOC(=O)c1c(N2CCOCC2)ncn(-c2cccc(Cl)c2)c1=O | > 100 µM | > 100 µM | > 100 µM | > 100 µM | > 100 µM | > 100 µM | > 100 µM | > 100 µM | > 100 µM | > 100 µM | > 100 µM | > 100 µM | > 100 µM | > 100 µM | > 100 µM | > 100 µM | > 100 µM | > 100 µM | > 100 µM | > 100 µM |
| CSC1(C(=O)O)C2CCC3C2CCC31 (configuration not stated) | > 100 µM | > 100 µM | > 100 µM | > 100 µM | > 100 µM | > 100 µM | > 100 µM | > 100 µM | > 100 µM | > 100 µM | > 100 µM | > 100 µM | > 100 µM | > 100 µM | > 100 µM | > 100 µM | > 100 µM | > 100 µM | > 100 µM | > 100 µM |
| COc1ccc2nc3n(c2c1)C(c1c(F)cccc1F)SC3 (configuration not stated) | > 100 µM | > 100 µM | > 100 µM | > 100 µM | 59.2 µM | > 100 µM | > 100 µM | > 100 µM | > 100 µM | > 100 µM | > 100 µM | > 100 µM | > 100 µM | 74.9 µM | > 100 µM | > 100 µM | > 100 µM | > 100 µM | > 100 µM | > 100 µM |
| COc1ccc(-c2c(-c3ccccc3)c(C)nc3[nH]c(=S)[nH]c(=S)c23)cc1OC | > 100 µM | 40.2 µM | > 100 µM | > 100 µM | > 100 µM | > 100 µM | > 100 µM | 72.5 µM | 52.8 µM | > 100 µM | > 100 µM | > 100 µM | > 100 µM | 48.1 µM | 98.3 µM | > 100 µM | > 100 µM | 74.1 µM | > 100 µM | > 100 µM |
| COc1ccc2c(C)cc(N/N=C/c3ccc(C)s3)nc2c1 | > 100 µM | 8.88 µM | 26.8 µM | > 51.6 µM | 73.5 µM | > 35.7 µM | 43.6 µM | > 93.7 µM | > 100 µM | > 54.3 µM | 23.9 µM | 29.1 µM | > 48 µM | 37.9 µM | 20 µM | > 100 µM | > 83.9 µM | > 52.4 µM | > 63.9 µM | 37.1 µM |
| COc1ccc(C[C@@H](C(=O)O[C@H](C)[C@H](NC(=O)[C@@H](CC(C)C)N(C)C(=O)C2CCCN2C(=O)[C@H](C)O)C(=O)N2CCCCNC(=O)[C@@H](C)C(=O)[C@H](C(C)C)OC(=O)C[C@H](O)[C@H]2CC(C)C)N(C)C(C)=O)cc1 (some centres not stated) | 39.7 µM | > 50 µM | > 50 µM | > 50 µM | > 50 µM | 26.8 µM | > 50 µM | 26.1 µM | 22.6 µM | > 50 µM | > 50 µM | 34.2 µM | 21.8 µM | > 50 µM | 45.2 µM | > 50 µM | > 50 µM | > 50 µM | > 50 µM | > 50 µM |
| O=[N+]([O-])C(C(Cl)=C(Cl)Cl)=C(n1nnc2ccccc21)n1nnc2ccccc21 | 30.6 µM | 62.4 µM | > 67.9 µM | > 81.6 µM | 55.9 µM | 56.4 µM | > 58 µM | 43.9 µM | 64.9 µM | > 63.7 µM | > 100 µM | 38.5 µM | 62.8 µM | > 65.3 µM | > 68.8 µM | 70 µM | > 58.1 µM | 58.4 µM | 66.3 µM | > 67.3 µM |
| O=CC(O)C(O)C1OC(=O)c2cc(O)c(O)c(O)c2C2=C(O)C(O)=C3OC(=O)c4c(c(O)c(O)c5c4C3C2C(=O)O5)-c2c(cc(O)c(O)c2O)C(=O)OCC1O (configuration not stated) | 56.7 µM | 57 µM | > 100 µM | 98.2 µM | > 100 µM | > 100 µM | > 100 µM | > 100 µM | > 100 µM |  | > 100 µM | 58.1 µM | 70.2 µM | > 100 µM | > 100 µM | > 100 µM | > 100 µM | 34.1 µM | 51.5 µM | > 100 µM |
| CSc1ncc2c(C#N)c3[nH]c4ccccc4n3c(=O)c2n1 | 46 µM | 45.2 µM | > 100 µM | > 100 µM | 99.3 µM | 12.3 µM | > 100 µM | 27.8 µM |  | > 100 µM | > 100 µM | > 100 µM | > 100 µM | 33 µM | 87.8 µM | > 100 µM | > 100 µM | 67 µM | > 100 µM | 48.7 µM |
| Clc1ccc(C(Cc2ccccc2)c2c(Cl)nc(N3CCNCC3)nc2Cl)cc1 (configuration not stated) | 17.8 µM | 28.2 µM | 36 µM | 25.7 µM | 35 µM | 33.7 µM | 33.2 µM | 27.2 µM | 26.6 µM | 34.3 µM | 27.6 µM | 26.9 µM | 26.9 µM | 33.2 µM | 30.2 µM |  | 27.2 µM | 32 µM | 43 µM | 28 µM |
